Test results from ChEMBL document CHEMBL1909046, “DrugMatrix in vitro pharmacology data”.

Columns and labels:
[1] = target: T1, Endothelin-1 receptor (Homo sapiens, UniProt P25101); assay type: cell membranes, Membrane; details: cho-k1; note: in other assays of this panel Not Active means under 50% inhibition at 10 µM
T1 sequence (P25101 whole entry): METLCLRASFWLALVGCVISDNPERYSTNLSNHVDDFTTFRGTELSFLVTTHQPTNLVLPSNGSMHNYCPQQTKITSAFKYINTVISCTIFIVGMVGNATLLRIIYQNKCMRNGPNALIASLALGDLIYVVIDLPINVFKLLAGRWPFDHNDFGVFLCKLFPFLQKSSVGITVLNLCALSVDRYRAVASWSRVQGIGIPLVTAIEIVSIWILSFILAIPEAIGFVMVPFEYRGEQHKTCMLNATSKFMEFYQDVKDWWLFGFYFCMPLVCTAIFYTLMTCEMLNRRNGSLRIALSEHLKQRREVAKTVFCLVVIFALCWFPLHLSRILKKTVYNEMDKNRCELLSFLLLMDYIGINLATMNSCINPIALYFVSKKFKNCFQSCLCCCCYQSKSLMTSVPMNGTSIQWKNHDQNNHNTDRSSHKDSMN

[2] = target: T2, Calcitonin receptor (Homo sapiens, UniProt P30988); assay type: cell membranes, Membrane; details: t47d; note: in other assays of this panel Not Active means under 50% inhibition at 10 µM
T2 sequence (P30988 whole entry): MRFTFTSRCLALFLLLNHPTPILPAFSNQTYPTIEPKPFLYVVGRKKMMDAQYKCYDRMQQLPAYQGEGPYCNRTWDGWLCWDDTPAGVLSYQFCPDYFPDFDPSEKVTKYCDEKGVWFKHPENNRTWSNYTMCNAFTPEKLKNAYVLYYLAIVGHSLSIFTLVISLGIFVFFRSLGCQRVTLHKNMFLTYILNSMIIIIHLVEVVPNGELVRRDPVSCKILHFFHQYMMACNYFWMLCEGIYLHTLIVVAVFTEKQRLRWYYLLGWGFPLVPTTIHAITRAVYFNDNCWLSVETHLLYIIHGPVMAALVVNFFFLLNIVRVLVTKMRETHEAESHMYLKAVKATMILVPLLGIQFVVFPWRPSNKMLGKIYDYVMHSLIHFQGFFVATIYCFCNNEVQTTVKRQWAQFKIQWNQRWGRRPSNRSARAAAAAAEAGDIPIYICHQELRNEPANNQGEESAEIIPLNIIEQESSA

[3] = target: Adenosine receptor A2a (Homo sapiens, UniProt P29274); test: DRUGMATRIX: Adenosine A2A radioligand binding (ligand: […]); assay type: cell membranes, HEK293, Membrane; details: hek293; Not Active = under 50% inhibition at 10 µM
[4] = target: T3, Muscarinic acetylcholine receptor M5 (Homo sapiens, UniProt P08912); assay type: cell membranes, CHO-K1, Membrane; details: cho-k1; note: in other assays of this panel Not Active means under 50% inhibition at 10 µM
T3 sequence (P08912 whole entry): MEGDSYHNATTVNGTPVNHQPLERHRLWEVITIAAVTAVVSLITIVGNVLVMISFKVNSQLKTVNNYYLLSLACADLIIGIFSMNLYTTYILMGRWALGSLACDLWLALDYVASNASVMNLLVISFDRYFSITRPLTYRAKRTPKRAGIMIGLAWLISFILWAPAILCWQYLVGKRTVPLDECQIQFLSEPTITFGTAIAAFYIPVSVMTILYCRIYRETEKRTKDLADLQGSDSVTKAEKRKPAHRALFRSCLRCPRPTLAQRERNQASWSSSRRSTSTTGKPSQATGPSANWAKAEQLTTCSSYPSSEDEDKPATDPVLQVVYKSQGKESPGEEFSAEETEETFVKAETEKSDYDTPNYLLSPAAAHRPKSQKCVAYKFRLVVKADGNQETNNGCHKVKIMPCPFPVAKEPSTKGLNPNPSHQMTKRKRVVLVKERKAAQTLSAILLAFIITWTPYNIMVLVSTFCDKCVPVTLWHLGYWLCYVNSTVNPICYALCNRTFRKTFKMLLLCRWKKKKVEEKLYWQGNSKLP

[5] = target: Vascular endothelial growth factor receptor 1 (Homo sapiens, UniProt P17948); assay type: cell-based; details: huvec; note: in other assays of this panel Not Active means under 50% inhibition at 10 µM
[6] = target: Beta-1 adrenergic receptor (Homo sapiens, UniProt P08588); test: DRUGMATRIX: Adrenergic beta1 radioligand binding (ligand: [125I] Cyanopindolol); assay type: cell membranes, CHO-K1, Membrane; details: cho-k1; Not Active = under 50% inhibition at 10 µM
[7] = target: Glycine receptor (Rattus norvegicus, UniProt P22771+P24524+P07727+P20781); assay type: cell membranes, Wistar, Spinal cord, Membrane; note: in other assays of this panel Not Active means under 50% inhibition at 10 µM
[8] = target: Mitogen-activated protein kinase 1 (Homo sapiens, UniProt P28482); test: DRUGMATRIX: Protein Serine/Threonine Kinase, ERK2 enzyme inhibition (substrate: Myelin Basic Protein); parameters: species or system Escherichia coli; details: Not Active = under 50% inhibition at 10 µM
[9] = target: T4, Progesterone receptor (Bos taurus, UniProt Q690N0); test: DRUGMATRIX: Progesterone radioligand binding (ligand: [3H] R-5020); assay type: tissue-based, Uterus; details: Not Active = under 50% inhibition at 10 µM
T4 sequence (Q690N0 whole entry): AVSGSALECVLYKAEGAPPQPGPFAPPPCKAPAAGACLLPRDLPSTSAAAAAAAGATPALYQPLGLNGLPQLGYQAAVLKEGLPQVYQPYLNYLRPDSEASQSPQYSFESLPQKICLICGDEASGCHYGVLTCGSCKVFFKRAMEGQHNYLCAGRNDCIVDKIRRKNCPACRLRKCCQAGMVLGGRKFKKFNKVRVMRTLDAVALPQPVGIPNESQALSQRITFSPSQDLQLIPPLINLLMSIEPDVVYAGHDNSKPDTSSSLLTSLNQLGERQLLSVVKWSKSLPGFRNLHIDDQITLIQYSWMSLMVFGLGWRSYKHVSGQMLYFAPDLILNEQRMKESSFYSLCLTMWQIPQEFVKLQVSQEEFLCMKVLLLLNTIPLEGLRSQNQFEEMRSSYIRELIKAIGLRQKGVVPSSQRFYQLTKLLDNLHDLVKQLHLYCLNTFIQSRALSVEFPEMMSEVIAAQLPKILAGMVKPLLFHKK

[10] = target: D(1A) dopamine receptor (Homo sapiens, UniProt P21728); test: DRUGMATRIX: Dopamine D1 radioligand binding (ligand: [3H] SCH-23390); assay type: cell membranes, CHO, Membrane; details: cho; Not Active = under 50% inhibition at 10 µM

Measured: IC50

Chain of Adenosine receptor A2a (P29274 whole entry): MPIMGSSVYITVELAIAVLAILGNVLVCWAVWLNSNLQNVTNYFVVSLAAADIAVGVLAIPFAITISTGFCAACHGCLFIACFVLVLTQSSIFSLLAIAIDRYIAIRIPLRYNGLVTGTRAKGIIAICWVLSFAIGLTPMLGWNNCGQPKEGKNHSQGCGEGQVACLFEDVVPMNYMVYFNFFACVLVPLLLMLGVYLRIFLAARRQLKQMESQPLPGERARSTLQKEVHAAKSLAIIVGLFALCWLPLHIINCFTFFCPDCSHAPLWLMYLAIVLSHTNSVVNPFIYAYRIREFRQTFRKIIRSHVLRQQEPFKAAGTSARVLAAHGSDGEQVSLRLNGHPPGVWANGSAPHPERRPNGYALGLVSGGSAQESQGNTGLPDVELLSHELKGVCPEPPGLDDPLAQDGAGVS
Chain of Mitogen-activated protein kinase 1 (P28482 whole entry): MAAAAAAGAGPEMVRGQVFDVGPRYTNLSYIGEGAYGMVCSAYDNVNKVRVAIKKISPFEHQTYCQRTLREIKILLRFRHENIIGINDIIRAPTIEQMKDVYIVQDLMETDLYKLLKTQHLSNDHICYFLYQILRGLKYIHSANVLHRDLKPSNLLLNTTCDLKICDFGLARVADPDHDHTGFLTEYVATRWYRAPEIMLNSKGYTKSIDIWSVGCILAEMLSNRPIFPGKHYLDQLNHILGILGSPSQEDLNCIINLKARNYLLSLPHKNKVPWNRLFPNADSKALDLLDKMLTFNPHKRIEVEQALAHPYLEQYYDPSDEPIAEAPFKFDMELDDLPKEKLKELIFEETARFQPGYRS
Chain of D(1A) dopamine receptor (P21728 whole entry): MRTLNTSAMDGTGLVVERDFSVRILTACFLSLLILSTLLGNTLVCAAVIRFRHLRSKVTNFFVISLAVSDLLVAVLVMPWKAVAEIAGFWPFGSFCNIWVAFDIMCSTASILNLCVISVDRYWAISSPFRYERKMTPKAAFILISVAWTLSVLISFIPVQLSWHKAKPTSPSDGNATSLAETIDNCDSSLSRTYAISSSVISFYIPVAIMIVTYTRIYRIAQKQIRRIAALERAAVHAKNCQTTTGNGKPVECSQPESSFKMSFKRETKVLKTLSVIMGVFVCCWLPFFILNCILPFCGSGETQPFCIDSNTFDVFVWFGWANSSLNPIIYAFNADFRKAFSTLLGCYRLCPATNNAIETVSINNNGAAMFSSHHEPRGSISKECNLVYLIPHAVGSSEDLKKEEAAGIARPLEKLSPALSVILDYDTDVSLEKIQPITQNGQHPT
Chain of Beta-1 adrenergic receptor (P08588 whole entry): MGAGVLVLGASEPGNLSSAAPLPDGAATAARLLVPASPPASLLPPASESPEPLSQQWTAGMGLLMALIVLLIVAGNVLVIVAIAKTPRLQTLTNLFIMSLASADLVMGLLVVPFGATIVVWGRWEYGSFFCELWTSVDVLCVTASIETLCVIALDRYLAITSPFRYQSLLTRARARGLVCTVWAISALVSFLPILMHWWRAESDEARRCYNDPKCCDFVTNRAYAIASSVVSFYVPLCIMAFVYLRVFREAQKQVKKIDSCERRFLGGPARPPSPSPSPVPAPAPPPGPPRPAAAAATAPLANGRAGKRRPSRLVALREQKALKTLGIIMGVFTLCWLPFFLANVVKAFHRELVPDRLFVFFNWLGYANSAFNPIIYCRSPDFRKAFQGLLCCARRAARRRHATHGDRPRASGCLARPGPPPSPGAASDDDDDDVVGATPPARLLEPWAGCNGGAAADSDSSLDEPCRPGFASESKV
Chain of Vascular endothelial growth factor receptor 1 (P17948 whole entry): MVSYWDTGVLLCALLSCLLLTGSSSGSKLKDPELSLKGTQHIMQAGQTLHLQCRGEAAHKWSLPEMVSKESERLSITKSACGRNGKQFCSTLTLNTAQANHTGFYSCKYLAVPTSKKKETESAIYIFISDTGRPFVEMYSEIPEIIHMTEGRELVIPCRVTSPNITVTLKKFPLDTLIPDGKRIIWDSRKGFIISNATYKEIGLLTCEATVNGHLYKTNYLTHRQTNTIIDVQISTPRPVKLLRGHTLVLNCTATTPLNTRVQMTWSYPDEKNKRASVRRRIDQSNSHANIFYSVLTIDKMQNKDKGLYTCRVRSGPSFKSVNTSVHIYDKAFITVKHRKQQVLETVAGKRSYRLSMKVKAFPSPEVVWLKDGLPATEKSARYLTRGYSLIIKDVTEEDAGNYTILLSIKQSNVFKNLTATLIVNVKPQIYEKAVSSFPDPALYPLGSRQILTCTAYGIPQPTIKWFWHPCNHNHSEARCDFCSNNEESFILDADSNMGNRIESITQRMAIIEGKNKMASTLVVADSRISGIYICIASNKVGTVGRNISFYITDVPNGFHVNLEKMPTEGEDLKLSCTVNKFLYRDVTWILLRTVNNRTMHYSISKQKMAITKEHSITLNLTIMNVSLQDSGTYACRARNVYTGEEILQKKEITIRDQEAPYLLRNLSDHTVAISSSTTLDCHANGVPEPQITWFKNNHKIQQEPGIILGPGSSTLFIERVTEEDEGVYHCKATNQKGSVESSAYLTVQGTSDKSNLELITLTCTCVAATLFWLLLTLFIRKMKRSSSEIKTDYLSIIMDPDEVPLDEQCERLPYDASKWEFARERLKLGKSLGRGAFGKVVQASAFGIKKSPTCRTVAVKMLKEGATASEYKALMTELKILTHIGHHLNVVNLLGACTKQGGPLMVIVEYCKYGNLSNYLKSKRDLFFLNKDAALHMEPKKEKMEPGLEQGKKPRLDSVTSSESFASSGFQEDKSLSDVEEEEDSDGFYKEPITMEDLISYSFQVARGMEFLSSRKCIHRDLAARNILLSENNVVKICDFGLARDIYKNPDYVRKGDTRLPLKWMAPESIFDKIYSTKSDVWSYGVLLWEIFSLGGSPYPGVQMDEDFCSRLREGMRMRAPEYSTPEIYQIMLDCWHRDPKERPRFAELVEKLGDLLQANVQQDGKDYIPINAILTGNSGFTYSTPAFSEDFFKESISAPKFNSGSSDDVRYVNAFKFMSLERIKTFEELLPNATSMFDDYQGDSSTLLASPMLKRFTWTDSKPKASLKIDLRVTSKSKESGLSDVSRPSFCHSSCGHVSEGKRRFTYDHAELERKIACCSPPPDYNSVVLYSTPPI

Brc1ccccc1 [BROMOBENZENE]
Not Active: [1] | [2] | [3] | [4] | [5] | [6] | [7] | [8] | [9] | [10]

COc1ccc2cc(CC(=O)O)ccc2c1
Not Active: [1] | [2] | [3] | [4] | [5] | [6] | [7] | [8] | [9] | [10]

CC[N+](CC)(CC)CCOc1cccc(OCC[N+](CC)(CC)CC)c1OCC[N+](CC)(CC)CC.[I-].[I-].[I-] [GALLAMINE TRIETHIODIDE]
Not Active: [1] | [2] | [3] | [4] | [5] | [6] | [7] | [8] | [9] | [10]

CCCSc1ccc2nc(NC(=O)OC)[nH]c2c1 [ALBENDAZOLE]
Not Active: [1] | [2] | [3] | [4] | [5] | [6] | [7] | [8] | [9] | [10]

OCc1ccccc1 [BENZYL ALCOHOL]
Not Active: [1] | [2] | [3] | [4] | [5] | [6] | [7] | [8] | [9] | [10]

CC1(C)[C@@H](O[C@H]2O[C@H](C(=O)O)[C@@H](O)[C@H](O)[C@H]2O[C@@H]2O[C@H](C(=O)O)[C@@H](O)[C@H](O)[C@H]2O)CC[C@]2(C)[C@H]3C(=O)C=C4[C@@H]5C[C@@](C)(C(=O)O)CC[C@]5(C)CC[C@@]4(C)[C@]3(C)CC[C@@H]12 [GLYCYRRHIZIN]
Not Active: [1] | [2] | [3] | [4] | [5] | [6] | [7] | [8] | [9] | [10]

O=P1(NCCCl)OCCCN1CCCl (centres undefined) [IFOSFAMIDE]
Not Active: [1] | [2] | [3] | [4] | [5] | [6] | [7] | [8] | [9] | [10]

CCc1cccc2c3c([nH]c12)C(CC)(CC(=O)O)OCC3 (centres undefined) [ETODOLAC]
Not Active: [1] | [2] | [3] | [4] | [5] | [6] | [7] | [8] | [9] | [10]

COCc1c(C(C)C)nc(C(C)C)c(/C=C/[C@@H](O)C[C@@H](O)CC(=O)O)c1-c1ccc(F)cc1 [CERIVASTATIN]
Not Active: [1] | [2] | [3] | [4] | [5] | [6] | [7] | [8] | [9] | [10]

CC1(C)S[C@@H]2[C@H](NC(=O)[C@H](N)c3ccc(O)cc3)C(=O)N2[C@H]1C(=O)O [AMOXICILLIN]
Not Active: [1] | [2] | [3] | [4] | [5] | [6] | [7] | [8] | [9] | [10]

N=C(N)NCCCCNC(=N)N.O=S(=O)(O)O [ARCAINE SULFATE]
Not Active: [1] | [2] | [3] | [4] | [5] | [7] | [8] | [9] | [10]

Fc1ccc([C@@H]2CCNC[C@H]2COc2ccc3c(c2)OCO3)cc1 [PAROXETINE]
Not Active: [1] | [2] | [3] | [5] | [6] | [7] | [8] | [9] | [10]

CC(C)NC[C@H](O)COc1cccc2[nH]ccc12
Not Active: [1] | [2] | [3] | [4] | [5] | [7] | [8] | [10]

COC(=O)[C@H](c1ccccc1Cl)N1CCc2sccc2C1 [CLOPIDOGREL]
Not Active: [1] | [2] | [3] | [4] | [5] | [7] | [8] | [9] | [10]

CCCCCCCCCc1ccc(O)cc1 [4-NONYLPHENOL]
Not Active: [1] | [2] | [3] | [5] | [6] | [7] | [8] | [9] | [10]
